# Data reported in patent US5563142A, “Diaromatic substituted compounds as anti-HIV-1 agents” (The Upjohn Company, priority 1994, dated 1996).
# Read-outs that look alike come from different tables or passages of the source.
# Columns and labels:
# [1] = target: T1, viral reverse transcriptase (Human immunodeficiency virus type 1 group M subtype B, UniProt P04585); test: Viral reverse transcriptase inhibition, cell free assay; format: biochemical, human immunodeficiency virus (HIV-1); conditions: poly rC or poly rG template; for inhibition at 100 µM: read-out: RT % INHIBITION (100 μM), 100 μM
# T1 construct: Viral reverse transcriptase is found in extracts from bacterial clones; made in house; host or cells: Escherichia coli (extracts of bacterial clones, by the procedure of Larder et al., EMBO J. 6:3133-3137, 1987)
# Description: The utility of the diaromatic substituted piperazines (III), the anti-AIDS piperazines (IV) and the indoles (V) of this invention can be determined by their ability to inhibit viral reverse transcriptase, an enzyme essential for human immunodeficiency virus replication. This enzyme has characteristics which differentiate it from other known cellular polymerases and it is a unique enzyme which is not found in uninfected cells. Viral reverse transcriptase is found in extracts from bacterial clones prepared according to the procedure described in AIDS Virus Reverse Transcriptase defined by high level expression in Escherichia coli, EMBO J. 6:3133-3137 (1987). Inhibition of this enzyme is determined in a cell free assay which measures the level of radioactive precursors incorporated into DNA. Extracts prepared according to the procedure of Science, 1125-1129 (1981) are incubated in a mixture of inhibitor, 20 mM dithiothreitol, 60 mM sodium chloride, 0.05% NP-40, 10 mM magnesium chloride, 50 mM Tris pH 8.3, 10 μM [^35 S]-labeled deoxynuleoside-5'-triphosphate, 10 μg/ml RNA template (poly rC or poly rG) and 5 μg/ml DNA primer (oligo dG or oligo dT) for 30 minutes at 37° C. Incorporation of radio-labeled percursor is determined by spotting aliquots of the reaction mixture on DE81 paper, washing the papers to remove unincorporated percursor, drying and determining counts. The results (IC50 means the concentration, in μM of drug, required to inhibit the reverse transcriptase activity to the extent of 50%) of various assay(s) are combined and reported as % inhibition and IC50 (calculated).
# ^1 Viral reverse transcriptase is found in extracts from bacterial
# clones prepared according to the procedure described by Larder, B.,
# Purifoy D., Powell, K. and Darby, G., AIDS virus reverse transcriptase
# defined by high level expression in Escherichia coli., EMBO J. 6,
# 3133-3137 (1987). Inhibition of this enzyme is determined in a cell free
# assay which measures the level of radioactive precursors incorporated int
# DNA. Extracts prepared according to the procedure of Kleid, D. G., et
# al., Science, 1125-1129 (1981) are incubated in a mixture of inhibitor, 2
# mM dithiothreitol, 60 mM sodium chloride, 0.05% NP40, 10 mM magnesium
# chloride, 50 mM Tris pH 8.3, 10 μM [^35 Slabeled
# deoxynucleoside5triphosphate, 10 μg/ml RNA template (poly rC or poly
# rG) and 5 μg/ml DNA primer (oligo dG or oligo dT) for 15 minutes at
# 37°. Incorporation of radio labeled precursor is determined by
# harvesting the trichloroacetic acid precipitated reaction mixtures on
# glass fiber filters, drying, and determining counts. The results of
# various assays are combined and reported as % inhibition at a 100 μM
# [2] = system: HIV in primary human peripheral blood lymphocytes; test: Primary PBL assay: inhibition of viral replication (p24 & RNA); format: cell-based; conditions: primary human lymphocytes infected with HIV, days three and four, read-out: PBL INHIBITION OF VIRAL REPLICATION (p24 & RNA) ED50
# Procedure: ^3 The utility of the compounds of the invention is further
# infection in primary peripheral blood lymphocytes (primary PBL assay). Th
# primary PBL assay offers the following advantages:
# (a) The assays are performed with primary human lymphocytes. Thereby,
# undesired testing of transformed cell lines is avoided in which host cell
# and virus may have undergone processes of mutual adaptation. Performance
# of cell culture in serum containing media closely mimics the in vivo
# situation. (b) The primary PBL assay distinguishes between true antiviral
# effect which is due to the drug and cytostatic/cytotoxic reactions. (c)
# Viral replication is precisely followed by kinetic measurement of viral
# nucleic acids and proteins. (d) Nucleic acids (total HIVRNA intra and
# extracellular) and protein (secreted p24) are measured in parallel which
# permits one to differentiate between the compound's effect on virus
# replication and on the expression of viral proteins. This leads to
# additional information regarding the efficacy of the test compound. (e)
# Tolerance of the cell culture against low amounts of organic solvents als
# permits the investigation of hydrophobic substances. (f) The dose of the
# drug causing half maximal suppression of virus replication is determined.
# (g) The screening system is standardized and automated to a high degree.
# The primary PBL assay uses the following procedure:
# Effects of the compounds of the invention on cell proliferation are determined by lymphocyte proliferation assays. Starting with a 100 micromolar solution, the compound is serially diluted 10 fold. One tenth of the concentration of a compound causing half maximal inhibition of cellular proliferation is employed for all subsequent testing.
# Peripheral human lymphocytes are isolated by density gradient centrifugation. After stimulation by mitogen the cells are infected with a standardized preparation of HIV. Subsequently, the infected cells are cultured in the presence of the drug for four days. Individual cultures are established to measure viral replication three and four days following infection. Untreated cells and AZT-treated cells are included as controls in parallel with the drugs under investigation.
# The amount of viral core protein p24 synthesized and release by the infected cells is determined in the supernatant by the capture-ELISA technique on days three and four. By comparing with a standard preparation, the amount of protein produced by the virus infected cells is quantified.
# The total amount of viral RNA synthesized by the infected lymphocytes is determined by a special nucleic acid hybridization on days three and four of culture. By including a standard preparation of HIV-RNA the amount of synthesized RNA is quantified.
# In addition, viability of HIV-infected cells is determined in parallel with assays for viral p24 and RNA. In order to evaluate the half maximal antiviral effect of the drug, a concentration dependency of the drug action is measured.
# Numerous examples of the compounds of the invention are assayed according to this procedure. The anti-HIV activity, as measured by the inhibition of the release of core p24 protein in HIV infected human lymphocytes, is used to calculate ED50 -antiviral (the concentration required to give a 50% reduction in p24 synthesis).
# [3] = Human immunodeficiency virus 1, Lymphocyte
Structure (SMILES),inhibition at 100 µM [1],"EC50 [2, 3]",EC50 [2],RT % INHIBITION (100 μM) ([1]; 100 μM)
"CC(C)Nc1cccnc1N1CCN(C(=O)c2cc3cc4c(cc3[nH]2)OCO4)CC1 [Example 90, 1-[5,6-Methylenedioxyindolyl-2-carbonyl]-4-[3-(1-methylethylamino)-2-pyridinyl]piperazine]",96%,< 1 nM,–,–
"CC(C)Nc1ccc(F)cc1N1CCN(C(=O)c2cc3ccccc3[nH]2)CC1 [Example 75, 1-[Indolyl-2-carbonyl]-4-[2-(1-methylethylamino)-5-fluorophenyl]piperazine]",77%,10 to 100 nM,–,–
"CC(C)Nc1cccnc1N(C)CCCCCCN(C)C(=O)c1cc2ccccc2[nH]1 [Example 54, N,N'-Dimethyl-N-(indolyl-2-carbonyl)-N'-[3-(1-methylethyl-amino)-2-pyridinyl]-1,6-hexanediamine]",70 to 80%,100 nM,–,–
"COc1cc2cc(C(=O)N3CCN(c4ncccc4NC(C)C)CC3)[nH]c2cc1OC [Example 72, 1-[5,6-Dimethoxyindolyl-2-carbonyl]-4-[3-(1-methylethylamino)-2-pyridinyl]piperazine]",43 to 66%,< 10 nM,–,–
"COc1ccc2cc(C(=O)N3CCN(c4ncccc4NC(C)C)CC3)[nH]c2c1 [Example 87, 1-[6-Methoxyindolyl-2-carbonyl]-4-[3-(1-methylethylamino)-2-pyridinyl]-piperazine]",96 to 98%,10 nM,–,–
CCC(C)Nc1cccnc1N1CCN(C(=O)c2cc3ccccc3[nH]2)CC1 (stereo not shown) [Example 99],93 to 95%,1 to 10 nM,–,–
"CC(C)Nc1ccnnc1N1CCN(C(=O)c2cc3cc(F)ccc3[nH]2)CC1 [Example 50, 1-(5-Fluoroindolyl-2-carbonyl)-4-[4-(1-methylethyl)amino)-3-pyridazinyl]piperazine, methane sulfonate]",84 to 97%,100 nM,–,–
"CCNc1cccnc1N1CCN(C(=O)c2cc3cc(OC)ccc3[nH]2)CC1 [Example 16, 1-[5-Methoxyindolyl-2-carbonyl]-4-[3-(ethylamino)-2-pyridinyl]piperazine]",85 to 88%,–,3 nM,–
"CC(C)Nc1cccnc1N(C)CCCCN(C)C(=O)c1cc2ccccc2[nH]1 [Example 124, N,N'-Dimethyl-N-(indolyl-2-carbonyl)-N'-[3-(1-methylethyl-amino)-2-pyridyl]-1,4-butanediamine]",95%,> 100 nM,–,–
"CC(C)Nc1cccnc1N(C)CCCN(C)C(=O)c1cc2ccccc2[nH]1 [Example 53, N,N'-Dimethyl-N-(indolyl-2-carbonyl)-N'-[3-(1-methylethyl-amino)-2-pyridyl]-1,3-propanediamine]",82 to 94%,1 to 10 nM,–,–
"CC(C)Nc1cccnc1N1CCN(C(=O)c2cc3cc([N+](=O)[O-])ccc3[nH]2)CC1 [Example 103, 1-[5-Nitroindolyl-2-carbonyl]-4-[3-(1-methylethylamino)-2-pyridinyl]piperazine]",72%,< 10 nM,–,–
"O=C(c1cc2ccccc2[nH]1)N1CCN(c2ncccc2N2CCCC2)CC1 [Example 76, 1-[Indolyl-2-carbonyl]-4-[3-(1-pyrrolidinyl)-2-pyridinyl]piperazine]",65 to 76%,100 to 1000 nM,–,–
"CCOC(=O)COc1ccc2[nH]c(C(=O)N3CCN(c4ncccc4NC(C)C)CC3)cc2c1 [Example 60, 1-[5-(Ethoxycarbonylmethoxy)indolyl-2-carbonyl]-4-[3-(1-methylethylamino)-2-pyridinyl]piperazine]",89 to 92%,100 to 1000 nM,–,–
"CNc1cccnc1N1CCN(C(=O)c2cc3ccccc3[nH]2)CC1 [Example 65, 1-(Indolyl-2-carbonyl)-4-[3-(methylamino)-2-pyridinyl]piperazine]",81 to 93%,≤ 1 nM,–,–
"COc1cc2[nH]c(C(=O)N3CCN(c4ncccc4NC(C)C)CC3)cc2cc1F [Example 91, 1-[5-Fluoro-6-methoxyindolyl-2-carbonyl]-4-[3-(1-methylethylamino)-2-pyridinyl]piperazine]",85 to 91%,100 nM,–,–
"CC(C)Nc1cccnc1N1CCN(C(=O)c2cc3cc(N)ccc3[nH]2)CC1 [Example 101, 1-[5-Aminoindolyl-2-carbonyl]-4-[3-(1-methylethylamino)-2-pyridinyl]-piperazine]",93 to 96%,10 nM,–,–
"CC(C)Nc1cccnc1OCCN(C)C(=O)c1cc2ccccc2[nH]1 [Example 58, 2-(2-(N-Methyl-N-(indolyl-2-carbonyl)amino)ethoxy)-3-(1-methylethylamino)pyridine]",94 to 98%,< 100 nM,–,–
"O=C(c1cc2cc(F)ccc2[nH]1)N1CCN(c2ncccc2NCC(F)(F)F)CC1 [Example 34, 1-[5-Fluoroindolyl-2-carbonyl]-4-[3-(2,2,2-trifluoroethylamino)-2-pyridinyl]piperazine]",41%,< 10000 nM,–,–
"COCC(C)Nc1cccnc1N1CCN(C(=O)c2cc3cc(F)ccc3[nH]2)CC1 (stereo not shown) [Example 106, 1-[5-Fluoroindolyl-2-carbonyl]-4-[3-(2-methoxy-1-methylethylamino)-2-pyridinyl]piperazine]",76 to 81%,≤ 1 nM,–,–
CC(C)Nc1cccnc1N(C)CCOC(=O)c1cc2ccccc2[nH]1 [Example 55],66 to 79%,100 to 1000 nM,–,–
CC(C)Nc1cccnc1N1CCN(C(=O)c2nc3ccccc3[nH]2)CC1 [Example 62],–,–,1000 to 10000 nM,64-78%
"CC(=O)Nc1ccc2[nH]c(C(=O)N3CCN(c4ncccc4NC(C)C)CC3)cc2c1 [Example 104, 1-[5-Acetamidoindolyl-2-carbonyl]-4-[3-(1-methylethylamino)-2-pyridinyl]piperazine]",92 to 96%,10 nM,–,–
CC(C)Nc1cccnc1N1CCCN(C(=O)c2cc3cc(F)ccc3[nH]2)CC1 [Example 84],97%,< 1 nM,–,–
